Data: US20240165209A1, “PLACENTAL ALKALINE PHOSPHATASE FOR REDUCING THE LOSS OF RED BLOOD CELLS, WHITE BLOOD CELLS, AND PLATELETS IN CHEMOTHERAPY TREATED CANCER PATIENTS” (ZOLTAN LABORATORIES, LLC, priority 2021, published 2024)

What was measured:
[1] = test system: blood cells (RBCs, WBCs, platelets) of T47D tumor bearing mice; assay: Experiment 1: blood cell counts in Cyp-treated T47D tumor bearing mice, last sample day 9; assay type: in vivo, mouse; settings: Cyp 120 mg/kg i.p. daily x6, PLAP 7.5 mg/kg s.c. days 0, 3, 6
Protocol: In the two experiments performed, first-generation hybrid BDF1 (C57BL/6 female×DBA/2 male) 10 weeks old adult female mice bearing T47D tumors (2.6-3.3 cm 3 volume) were used.
In the first group, mice received no treatment. In the second and third groups, mice were administered 120 mg/kg of cyclophosphamide (Cyp) intraperitoneally once a day for 6 consecutive days administered between 10-10.30 AM. In a third group, mice were also administered 7.5 mg/kg of PLAP subcutaneously on days 0, 3 and 6 between 9-9.30 AM. In each group, mice were kept on standard diet (˜15% fat, 65% carbohydrate, and 20% proteins) purchased from Charles River VRFI. Both PLAP (for the 3rd group) and Cyp were dissolved in physiological (0.9%) saline and injected in 50 μl volume. […] The data shown is the average of 6 independent determinations ±S.D.

[2] = test system: nucleated bone marrow cells (BM); assay: Nucleated bone marrow (BM) cells per femur in Cyp treated T47D tumor bearing mice; assay type: in vivo, mouse; settings: Cyp 120 mg/kg i.p. daily x6, PLAP 7.5 mg/kg s.c. days 0, 2, 4, 6
Protocol: Again, first-generation hybrid BDF1 (C57BL/6 female×DBA/2 male) 10 weeks old adult female mice bearing T47D tumors (2.6-3.3 cm^3) were used. In the first group, mice received no treatment. In the second and third groups, mice were administered 120 mg/kg of Cyp intraperitoneally once a day for 6 consecutive days. In a third group, mice were also administered 7.5 mg/kg of PALP subcutaneously on days 0, 2, 4 and 6. On the days indicated in TABLE 4, the animals were killed, then the bone marrow was flushed from the femurs with Iscove's modified Dulbecco's medium (Gibco BRL, Gaithersburg, MD, USA). This was followed by standard erythrocyte lysis and then by counting the number of nucleated bone marrow (BM) cells per femur using a hemocytometer.

In the case of O.O=P1(N(CCCl)CCCl)NCCCO1 (stereo not shown) [Cyp, 2-[Bis (2-chloroethyl)amino] tetrahydro-2H-1,3,2-oxazaphosphorine 2-oxide monohydrate], the Platelets ([1]; day 0) was 1,114 ± 111 ×10^−3/μl, the RBCs ([1]; day 0) was 9.51 ± 1.09 ×10^−6/μl and the WBCs ([1]; day 0) was 7.92 ± 0.72 ×10^−3/μl. The Platelets ([1]; day 3) was 704 ± 98 ×10^−3/μl, the RBCs ([1]; day 3) was 7.28 ± 1.29 ×10^−6/μl and the WBCs ([1]; day 3) was 4.22 ± 0.85 ×10^−3/μl. For the same compound, the Platelets ([1]; day 6) was 404 ± 139 ×10^−3/μl, the RBCs ([1]; day 6) was 4.94 ± 0.63 ×10^−6/μl and the WBCs ([1]; day 6) was 2.73 ± 0.53 ×10^−3/μl. The Platelets ([1]; day 9) was 687 ± 114 ×10^−3/μl, the RBCs ([1]; day 9) was 6.26 ± 0.71 ×10^−6/μl and the WBCs ([1]; day 9) was 5.72 ± 0.49 ×10^−3/μl. The “Nucleated BM cells/femur” value ([2]; day 0) was 14.11 ± 1.50 ×10^6, the “Nucleated BM cells/femur” value ([2]; day 3) was 9.32 ± 2.32 ×10^6 and the “Nucleated BM cells/femur” value ([2]; day 6) was 3.10 ± 2.26 ×10^6. The “Nucleated BM cells/femur” value ([2]; day 9) was 4.90 ± 2.17 ×10^6.
